Laboratory results taken from US20050180944A1, “In situ remediation of waste in farm animal bedding substrates” (priority 2004, published 2005).

Assays:
[1] = tested on: pig waste; assay: Seven-day test: bioremediation/degradation of pig waste suspended in water with fatty acid additives; conditions: 0.1 g fatty acid (0.5 g coated nutrient) per bottle of aqueous pig waste mixture, 2000 ppm ammonium hydroxide, 25 degrees Celsius
Procedure: A test was performed to determine the relative performance of various additives on the bioremediation or degradation of wastes suspended in water. Measurements of the “biological oxygen demand” (BOD) and “total suspended solids” (TSS) were taken as representative of the progress of the microbial growth and effectiveness of the degradation brought about by the microbes. Approximately five pounds of pig waste was collected from a feedlot and diluted in five gallons of deionized water. The mixture was allowed to sit for 24 hours to insure that the waste formed a uniform mixture. Five hundred milliliters (500 ml) of the aqueous waste mixture was added to each of 13 two-liter glass bottles that were closed with Teflon lined caps. Ammonium hydroxide was added to each container for a final concentration of 2000 ppm. The samples were diluted with water 2:1 and filtered to remove large particulate matter. Various fatty acids and combinations of fatty acids were added to each bottle and the bottles were placed in a tumbler at 25 degrees Celsius. Seven of the bottles were used in a seven-day test and six of the bottles were used in a twelve-day test. Standard EPA test methods were used for all test measurements.

[2] = tested on: pig waste; assay: BOD and TSS of pig waste samples treated with fatty acids and combinations (test duration not given); design: BOD reduction / TSS reduction: concentration or dose not given beside the values; conditions: treated pig waste sample
Procedure: A test was performed to determine the relative performance of various additives on the bioremediation or degradation of wastes suspended in water. Measurements of the “biological oxygen demand” (BOD) and “total suspended solids” (TSS) were taken as representative of the progress of the microbial growth and effectiveness of the degradation brought about by the microbes.
Approximately five pounds of pig waste was collected from a feedlot and diluted in five gallons of deionized water. The mixture was allowed to sit for 24 hours to insure that the waste formed a uniform mixture. Five hundred milliliters (500 ml) of the aqueous waste mixture was added to each of 13 two-liter glass bottles that were closed with Teflon lined caps. Ammonium hydroxide was added to each container for a final concentration of 2000 ppm.
The samples were diluted with water 2:1 and filtered to remove large particulate matter. Various fatty acids and combinations of fatty acids were added to each bottle and the bottles were placed in a tumbler at 25 degrees Celsius. Seven of the bottles were used in a seven-day test and six of the bottles were used in a twelve-day test. Standard EPA test methods were used for all test measurements.
BOD (biological oxygen demand) and TSS (total suspended solids) were measured on each sample.

CCCCC/C=C\C/C=C\CCCCCCCC(=O)O [Linoleic, linoleic acid]
TSS (total suspended solids) [1]: 15,780 ppm
BOD levels [2]: 6102 ppm
BOD reduction [2]: 12.2%
TSS levels [2]: 439 ppm
TSS reduction [2]: 13.3%

CCCCCCCC/C=C\CCCCCCCC(=O)O [Oleic, oleic acid]
TSS (total suspended solids) [1]: 15,600 ppm
BOD levels [2]: 6050 ppm
BOD reduction [2]: 13.0%
TSS levels [2]: 407 ppm
TSS reduction [2]: 19.6%

CCCCCCCCCCCC(=O)O [Lauric]
TSS (total suspended solids) [1]: 16,040 ppm

CCCCCCCCCCCCCCCCCC(=O)O [Strearic, stearic acid]
TSS (total suspended solids) [1]: 16,080 ppm
BOD levels [2]: 6660 ppm
BOD reduction [2]: 9.5%
TSS levels [2]: 455 ppm
TSS reduction [2]: 10.0%
